{"source": "patent US20050182128A1", "about": "“Use of anethole dithiolethione in lung cancer chemoprevention” (priority 2002, published 2005)", "key": {"bronchial dysplasia": {"system": "bronchial dysplasia", "assay": "Phase IIb trial: nuclear morphometry index (MI) of bronchial biopsies", "type": "in vivo, human", "source_text": "The primary outcome of the study was changes in the histopathology grade of the bronchial biopsies before and after six months of intervention. The secondary endpoint was changes in the nuclear morphometry index of the bronchial biopsies.\nThe method of quantitative nuclear morphometry had been described in detail previously (Lam et al., 1998; Doudkine et al., 1995; Garner et al., 1994). […] Morphometric measurements provide a more objective and reproducible means for the grading of bronchial biopsies than subjective assessment does. The device used to make these high-resolution quantitative morphometric measurements was a Cyto-Savant™ system (Lam et al., 1998; Doudkine et al., 1995; Garner et al., 1994). The images were interactively collected by an experienced cytotechnologist under the direction of a pathologist (JCL). The images were collected using a 20x objective with a numerical aperture of 0.75. Analysis of the nuclei in each tissue consisted of five steps 1) focusing the field of view, 2) automatically segmenting the nuclei in the field, 3) interactively correcting segmentation errors, 4) selecting and classifying the cell nuclei into the categories of basal, intermediate or superficial cells depending or their location within the biopsy where possible, and 5) automatically collecting individually focused images of each selected cell. Additionally, approximately 30 leukocytes were collected to normalize the images for sample to sample variations in staining intensity. On the average, greater than 100 cell nuclei were collected in this fashion for each of the biopsies. Using bulk nuclear features such as the total area and the total amount of light absorbed (which corresponds to the amount of DNA), shape features and descriptions of the distribution of stained DNA (texture features) (Doudkine et al., 1995), a scale was defined with normal nuclei defining one end and cancer-like nuclei defining the other. From the proportion of nuclei along this scale, a Morphometry Index (MI) was derived for each biopsy (Lam et al., 1998).\nFor quantitative nuclear morphometry, the median MI for histologically normal biopsies was 1.25. The inter-observer variation of measuring the MI was such that a change in MI greater than 0.11 (>2SD) was taken to be a significant change. For the lesion specific analysis, CR was defined as regression of a lesion with a MI of >1.36 to ≦1.36. PD was defined as increase in the MI from ≦1.36 to >1.36. On a participant by participant basis, CR was defined as regression of all sites with MI>1.36 to ≦1.36. PD was defined as progression of any site similar to that defined under the site by site analysis or appearance of new lesions with a MI of >1.36.\nDescriptive statistics were used to summarize subject characteristics, and pathologic evaluations of the bronchial biopsy examinations. Comparison between treatment arms was done with the Mann-Whitney test for continuous variables such as age, smoking intensity (pack-years) and MI. Pearson's χ^2 test with continuity correction was used to compare categorical variables such as gender, smoking status (current versus former smokers) and response rates (progression and regression) in the two arms. Fisher's exact test was applied to the lower partial response and stable disease rates. All P values are two-sided. A two-sided P value of less than 0.05 was considered statistically significant."}, "[1]": {"assay": "Phase IIb trial: adverse events and toxicity monitoring", "type": "in vivo, human", "procedure": "Follow Up. The participants were seen monthly for examination of drug related adverse events. Liver enzymes were measured at baseline and at months 3 and 6 for toxicity monitoring. Fluorescence bronchoscopy was repeated after 6 months of study medication. The bronchoscopist was blinded to the intervention assignment. All previously biopsied sites were identified and re-biopsied under fluorescence bronchoscopy. Biopsy was also taken from new areas with abnormal fluorescence."}, "[2]": {"system": "glutathione-S-transferase (GST)", "conditions": "rat model of hepatoma; p<0.01; cited from earlier work"}, "lipid peroxidation": {"system": "lipid peroxidation", "conditions": "in-vitro, rat liver microsome model; cited from earlier work"}, "nuclear factor NFκB": {"system": "nuclear factor NFκB", "conditions": "human Jurkat cells; cited from earlier work"}, "human Jurkat cells": {"system": "human Jurkat cells", "conditions": "pretreatment of human Jurkat cells; cited from earlier work"}, "[3]": {"system": "intracellular glutathione", "conditions": "animals pretreated with various toxins and normal animals; cited from earlier work"}, "aflatoxin tumorigenicity": {"system": "aflatoxin tumorigenicity", "conditions": "rats; cited from earlier work"}}, "note": "Entries after “also recorded” stand apart in the source; their conditions may differ. Marks after values point to notes of the source that are not given here.", "data": [{"smiles": "COc1ccc(-c2cc(=S)ss2)cc1", "note": "[ADT, 5-(p-methoxyphenyl)-1,2-dithiole-3-thione]", "values": [{"measurement": "PR rate, subject specific analysis, nuclear morphometry", "setting": "bronchial dysplasia; 6 months", "result": 3, "unit": "%"}, {"measurement": "Biopsies with MI >1.36 at 6 months", "setting": "bronchial dysplasia; baseline MI >1.36, of 38", "result": 9}, {"measurement": "Biopsies with MI ≦1.36 at 6 months", "setting": "bronchial dysplasia; baseline MI >1.36, of 38", "result": 29}, {"measurement": "CR rate, lesion specific analysis, nuclear morphometry", "setting": "bronchial dysplasia; baseline MI >1.36 to ≦1.36 at 6 months, placebo 63%, P=0.37", "result": 76, "unit": "%"}, {"measurement": "Biopsies with MI >1.36 at 6 months", "setting": "bronchial dysplasia; baseline MI ≦1.36, of 112", "result": 27}, {"measurement": "Biopsies with MI ≦1.36 at 6 months", "setting": "bronchial dysplasia; baseline MI ≦1.36, of 112", "result": 85}, {"measurement": "PD rate, lesion specific analysis, nuclear morphometry", "setting": "bronchial dysplasia; baseline MI ≦1.36 to >1.36 at 6 months, placebo 33%, P=0.22", "result": 24, "unit": "%"}, {"measurement": "CR, number of subjects, nuclear morphometry", "setting": "bronchial dysplasia; of 29", "result": 13}, {"measurement": "PD, number of subjects, nuclear morphometry", "setting": "bronchial dysplasia; of 29", "result": 12}, {"measurement": "PR, number of subjects, nuclear morphometry", "setting": "bronchial dysplasia; of 29", "result": 1}, {"measurement": "PD rate, person specific analysis, nuclear morphometry", "setting": "bronchial dysplasia; participants with MI>1.36 pre-treatment, placebo 60%, P=0.28", "result": 41, "unit": "%"}, {"measurement": "PD rate lower than placebo, nuclear morphometry", "setting": "bronchial dysplasia; person specific, 41% versus 60%", "result": 19, "unit": "%"}, {"measurement": "CR rate higher than placebo, nuclear morphometry", "setting": "bronchial dysplasia; person specific, 45% versus 24%", "result": 21, "unit": "%"}, {"measurement": "CR rate, person specific analysis, nuclear morphometry", "setting": "bronchial dysplasia; placebo 24%, p=0.19", "result": 45, "unit": "%"}, {"measurement": "Biopsies with MI >1.36 at 6 months", "setting": "bronchial dysplasia; total, of 150", "result": 36}, {"measurement": "Biopsies with MI ≦1.36 at 6 months", "setting": "bronchial dysplasia; total, of 150", "result": 114}, {"measurement": "Adverse events, overall description", "setting": "[1]; 25 mg orally TID, six months", "result": "mostly minor gastrointestinal symptoms that resolved with dose reduction or discontinuation of the medication; also recorded: only adverse events observed were gastrointestinal"}, {"measurement": "Symptoms significantly more frequent than with placebo", "setting": "[1]; P=0.018", "result": "Only abdominal bloating was significantly more frequent"}, {"measurement": "Subjects with dose reduced to 25 mg BID", "setting": "[1]; of 56", "result": 17}, {"measurement": "Subjects with dose reduced to 25 mg QD", "setting": "[1]; of 56", "result": 4}, {"measurement": "Constipation", "setting": "[1]; placebo 0%", "result": 5, "unit": "%"}, {"measurement": "Increased Saliva", "setting": "[1]; placebo 4%", "result": 2, "unit": "%"}, {"measurement": "Abdominal Bloating", "setting": "[1]; placebo 4%, P = 0.01 compared to placebo", "result": 25, "unit": "%*"}, {"measurement": "Participants with Grade 3 symptoms", "setting": "[1]; placebo 6%", "result": 11, "unit": "%"}, {"measurement": "Loose Stool", "setting": "[1]; placebo 8%", "result": 16, "unit": "%"}, {"measurement": "Diarrhea", "setting": "[1]; placebo 12%", "result": 13, "unit": "%"}, {"measurement": "Participants with Grade 2 symptoms", "setting": "[1]; placebo 20%", "result": 51, "unit": "%"}, {"measurement": "Participants requiring dose reduction", "setting": "[1]; placebo 25%", "result": 45, "unit": "%"}, {"measurement": "Excessive Flatus", "setting": "[1]; placebo 53%", "result": 93, "unit": "%"}, {"measurement": "Grade 3 elevation of liver enzymes", "setting": "[1]; returned to normal after discontinuation", "result": "One of the participants"}, {"measurement": "Mean GST levels in the liver", "setting": "[2]", "result": "statistically increased"}, {"measurement": "Inhibition of lipid peroxidation", "setting": "lipid peroxidation", "result": "potent inhibitor of lipid peroxidation"}, {"measurement": "Modulation of NFκB activation", "setting": "nuclear factor NFκB", "result": "capable of modulating"}, {"measurement": "Protection against oxidative stress-induced cytotoxicity", "setting": "human Jurkat cells", "result": "significantly protects cells"}, {"measurement": "Intracellular glutathione", "setting": "[3]", "result": "increase of intracellular glutathione"}, {"measurement": "Protection against aflatoxin tumorigenicity", "setting": "aflatoxin tumorigenicity", "result": "protective action against aflatoxin tumorigenicity"}]}]}
